29 molecules from patent US9809583B2 (priority 2014, dated 2017) can be followed below.

androgen receptor (hAR), sequence (P10275 whole entry): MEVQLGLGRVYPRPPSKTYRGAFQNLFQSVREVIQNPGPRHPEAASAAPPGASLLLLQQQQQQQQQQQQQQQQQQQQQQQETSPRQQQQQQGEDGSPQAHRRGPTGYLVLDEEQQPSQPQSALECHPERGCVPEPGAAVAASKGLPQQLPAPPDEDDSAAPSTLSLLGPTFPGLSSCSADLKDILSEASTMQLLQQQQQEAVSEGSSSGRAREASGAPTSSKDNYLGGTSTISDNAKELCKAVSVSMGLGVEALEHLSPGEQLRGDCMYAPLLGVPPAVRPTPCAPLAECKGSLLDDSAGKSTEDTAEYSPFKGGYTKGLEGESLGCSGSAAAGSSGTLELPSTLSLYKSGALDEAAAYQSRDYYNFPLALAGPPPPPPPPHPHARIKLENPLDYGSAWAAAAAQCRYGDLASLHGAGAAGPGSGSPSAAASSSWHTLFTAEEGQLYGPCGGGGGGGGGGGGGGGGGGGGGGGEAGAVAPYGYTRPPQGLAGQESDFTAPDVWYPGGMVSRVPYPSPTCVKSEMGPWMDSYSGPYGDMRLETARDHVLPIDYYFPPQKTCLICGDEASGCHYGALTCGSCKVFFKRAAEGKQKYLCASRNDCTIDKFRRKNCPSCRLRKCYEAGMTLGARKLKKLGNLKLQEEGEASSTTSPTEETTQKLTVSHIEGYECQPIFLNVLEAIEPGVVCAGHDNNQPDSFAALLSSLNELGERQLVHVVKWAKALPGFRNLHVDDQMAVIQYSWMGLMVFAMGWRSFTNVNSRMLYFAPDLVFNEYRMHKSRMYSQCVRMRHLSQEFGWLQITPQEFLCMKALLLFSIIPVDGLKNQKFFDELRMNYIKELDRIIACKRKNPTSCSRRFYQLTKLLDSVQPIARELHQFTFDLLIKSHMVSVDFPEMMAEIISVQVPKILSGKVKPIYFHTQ

The target of the first experiment is androgen receptor (hAR) (Homo sapiens (Human), UniProt P10275). Kind of experiment: Test of transcriptional activity (hAR / ARE-Luc dual-luciferase assay in CHO cells). To be noted: CHO cells with hAR and ARE-Luc, 24 hours; 10 nM DHT = 100%; read-out: EC50 [nM] (mean ± SE). Type of experiment: cell-based. The method, then:
In order to examine the transcriptional activity of the agonists of the present invention, the following in-vitro experiment was performed. CHO (Chinese hamster ovary) cell line (ATCC, #CCL-61) was seeded in a 96-well plate at a density of 1.5×10^4 cells/well, and cultured for 24 hours. Then, a plasmid hAR and plasmid ARE-Luc-mixed medium was added thereto. The transfected cell line was treated with 0.1˜10,000 nM of SARM derivatives, and then allowed to react for 24 hours.
For `Cc1cc(N2C[C@@H](COc3ccc(C#N)cc3)O[C@@H]2C(F)(F)F)ccc1[N+](=O)[O-]` [Example 53, 4-(((2R,5S)-3-(3-methyl-4-nitrophenyl)-2-(trifluoromethyl)oxazolidin-5-yl)methoxy)benzonitrile], the EC50 was 2.5 ± 0.7 nM. On the same count and under the same terms, with `CC(=O)Nc1ccc(OC[C@@H]2CN(c3ccc([N+](=O)[O-])c(C)c3)[C@@H](C(F)(F)F)O2)cc1` [Example 54, N-(4-(((2R,5S)-3-(3-methyl-4-nitrophenyl)-2-(trifluoromethyl)oxazolidin-5-yl)methoxy)phenyl)acetamide] the figure was 0.86 nM; with `Cc1cc(N2C[C@@H](COc3ccc(C#N)nc3)O[C@@H]2C(F)(F)F)ccc1[N+](=O)[O-]` [Example 55, 5-(((2R,5S)-3-(3-methyl-4-nitrophenyl)-2-(trifluoromethyl)oxazolidin-5-yl)methoxy)picolinonitrile], 4.49 nM; with `N#Cc1ccc(OC[C@@H]2CN(c3ccc(Cl)c(Cl)c3)[C@@H](C(F)(F)F)O2)cc1` [Example 63, 4-(((2R,5S)-3-(3,4-dichlorophenyl)-2-(trifluoromethyl)oxazolidin-5-yl)methoxy)benzonitrile], 36.3 nM.

For the molecule `N#Cc1ccc(OC[C@@H]2CN(c3ccc([N+](=O)[O-])c(C(F)(F)F)c3)[C@@H](C(F)(F)F)O2)cc1` [Example 64, 4-(((2R,5S)-3-(4-nitro-3-(trifluoromethyl)phenyl)-2-(trifluoromethyl)oxazolidin-5-yl)methoxy)benzonitrile], the EC50 was 34 nM. For the molecule `N#Cc1ccc(OC[C@@H]2CN(c3ccc([N+](=O)[O-])c(C(F)(F)F)c3)[C@@H](C(F)(F)F)O2)cn1` [Example 65, 5-(((2R,5S)-3-(4-nitro-3-(trifluoromethyl)phenyl)-2-(trifluoromethyl)oxazolidin-5-yl)methoxy)picolinonitrile], the EC50 was 59.5 nM.

For the molecule `O=[N+]([O-])c1ccc(N2C[C@@H](COc3ccncc3)O[C@@H]2C(F)(F)F)cc1C(F)(F)F` [Example 66, (2R,5S)-3-(4-nitro-3-(trifluoromethyl)phenyl)-5-((pyridin-4-yloxy)methyl)-2-(trifluoromethyl)oxazolidine], the EC50 amounted to 19.9 nM.

Staying with this experiment, now noted: EC50 [nM] (mean ± SE), CHO cells with hAR and ARE-Luc, 24 hours; 10 nM DHT = 100%.
The molecule `N#Cc1ccc(N2C[C@@H](COc3ccc(N)cc3)O[C@@H]2C(F)(F)F)cc1C(F)(F)F` [Example 14, 4-((2R,5S)-5-((4-aminophenoxy)methyl)-2-(trifluoromethyl)oxazolidin-3-yl)-2-(trifluoromethyl)benzonitrile] yielded a concentration giving a half-maximal response (EC50) of 111 nM. Turning to `N#Cc1ccc(N2C[C@@H](COc3ccc(NC(N)=O)cc3)O[C@@H]2C(F)(F)F)cc1C(F)(F)F` [Example 15, 1-(4-(((2R,5S)-3-(4-cyano-3-(trifluoromethyl)phenyl)-2-(trifluoromethyl)oxazolidin-5-yl)methoxy)phenyl)urea], it took 15.7 nM to reach a half-maximal effect (EC50). Still for that read-out and setting: with `CNC(=O)Nc1ccc(OC[C@@H]2CN(c3ccc(C#N)c(C(F)(F)F)c3)[C@@H](C(F)(F)F)O2)cc1` [Example 16, 1-(4-(((2R,5S)-3-(4-cyano-3-(trifluoromethyl)phenyl)-2-(trifluoromethyl)oxazolidin-5-yl)methoxy)phenyl)-3-methylurea] the figure was 21.3 nM; with `N#Cc1ccc(N2C[C@@H](COc3ccc(N4CCCC4=O)cc3)O[C@@H]2C(F)(F)F)cc1C(F)(F)F` [Example 17, 4-((2R,5S)-5-((4-(2-oxopyrrolidin-1-yl)phenoxy)methyl)-2-(trifluoromethyl)oxazolidin-3-yl)-2-(trifluoromethyl)benzonitrile], 24 nM. Same read-out and setting: the same measure for `N#Cc1ccc(N2C[C@@H](COc3ccc(-c4nnco4)cc3)O[C@@H]2C(F)(F)F)cc1C(F)(F)F` [Example 18, 4-((2R,5S)-5-((4-(1,3,4-oxadiazol-2-yl)phenoxy)methyl)-2-(trifluoromethyl)oxazolidin-3-yl)-2-(trifluoromethyl)benzonitrile]: 18.6 nM. On the same count and under the same terms, with `N#Cc1ccc(N2C[C@@H](COc3ccc(C(F)(F)F)cc3)O[C@@H]2C(F)(F)F)cc1C(F)(F)F` [Example 37, 2-(trifluoromethyl)-4-((2R,5S)-2-(trifluoromethyl)-5-((4-(trifluoromethyl)phenoxy)methyl)oxazolidin-3-yl)benzonitrile] the figure was 31.6 nM; with `N#Cc1ccc(N2C[C@@H](COc3ccc(N4CCOC4=O)cc3)O[C@@H]2C(F)(F)F)cc1C(F)(F)F` [Example 38, 4-((2R,5S)-5-((4-(2-oxooxazolidin-3-yl)phenoxy)methyl)-2-(trifluoromethyl)oxazolidin-3-yl)-2-(trifluoromethyl)benzonitrile], 165 nM; with `CS(=O)(=O)Nc1ccc(OC[C@@H]2CN(c3ccc(C#N)c(C(F)(F)F)c3)[C@@H](C(F)(F)F)O2)cc1` [Example 39, N-(4-(((2R,5S)-3-(4-cyano-3-(trifluoromethyl)phenyl)-2-(trifluoromethyl)oxazolidin-5-yl)methoxy)phenyl)methanesulfonamide], 42.6 nM. In turn, `CN(C)C(=O)Nc1ccc(OC[C@@H]2CN(c3ccc(C#N)c(C(F)(F)F)c3)[C@@H](C(F)(F)F)O2)cc1` [Example 40, 3-(4-(((2R,5S)-3-(4-cyano-3-(trifluoromethyl)phenyl)-2-(trifluoromethyl)oxazolidin-5-yl)methoxy)phenyl)-1,1-dimethylurea] had an EC50 of 438 nM. On to `CCOC(=O)Nc1ccc(OC[C@@H]2CN(c3ccc(C#N)c(C(F)(F)F)c3)[C@@H](C(F)(F)F)O2)cc1` [Example 41, ethyl(4-(((2R,5S)-3-(4-cyano-3-(trifluoromethyl)phenyl)-2-(trifluoromethyl)oxazolidin-5-yl)methoxy)phenyl)carbamate], for which a half-maximal response (EC50) required 16.2 nM. The same measure, in the same setting: the same measure for `CC(C)OC(=O)Nc1ccc(OC[C@@H]2CN(c3ccc(C#N)c(C(F)(F)F)c3)[C@@H](C(F)(F)F)O2)cc1` [Example 42, isopropyl (4-(((2R,5S)-3-(4-cyano-3-(trifluoromethyl)phenyl)-2-(trifluoromethyl)oxazolidin-5-yl)methoxy)phenyl)carbamate]: 514 nM; for `N#Cc1ccc(N2C[C@@H](COc3ccc(NC(=O)Oc4ccccc4)cc3)O[C@@H]2C(F)(F)F)cc1C(F)(F)F` [Example 43, phenyl (4-(((2R,5S)-3-(4-cyano-3-(trifluoromethyl)phenyl)-2-(trifluoromethyl)oxazolidin-5-yl)methoxy)phenyl)carbamate]: 21.3 nM; for `N#Cc1ccc(OC[C@@H]2CN(c3ccc(C#N)c(C(F)(F)F)c3)[C@H](C(F)(F)F)O2)cn1` [Example 45, 5-(((2S,5S)-3-(4-cyano-3-(trifluoromethyl)phenyl)-2-(trifluoromethyl)oxazolidin-5-yl)methoxy)picolinonitrile]: 44.1 nM. The same measure, in the same setting: the same measure for `N#Cc1cccc(OC[C@@H]2CN(c3ccc(C#N)c(C(F)(F)F)c3)[C@@H](C(F)(F)F)O2)c1` [Example 46, 4-((2R,5S)-5-((3-cyanophenoxy)methyl)-2-(trifluoromethyl)oxazolidin-3-yl)-2-(trifluoromethyl)benzonitrile]: 31.5 nM; for `N#Cc1ccc(OC[C@@H]2CN(c3ccc(C#N)c(C(F)(F)F)c3)[C@@H]([C@@H](O)C(F)(F)F)O2)cc1` [Example 48, 4-((2R,5S)-5-((4-cyanophenoxy)methyl)-2-((R)-2,2,2-trifluoro-1-hydroxyethyl)oxazolidin-3-yl)-2-(trifluoromethyl)benzonitrile]: 1520 nM.

Molecule `N#Cc1ccc(OC[C@@H]2CN(c3ccc(C#N)c(C(F)(F)F)c3)[C@@H]([C@H](O)C(F)(F)F)O2)cc1` [Example 49, 4-((2R,5S)-5-((4-cyanophenoxy)methyl)-2-((S)-2,2,2-trifluoro-1-hydroxyethyl)oxazolidin-3-yl)-2-(trifluoromethyl)benzonitrile] yielded a 50% effective concentration (EC50) of 1700 nM.

The molecule `N#Cc1ccc(N2C[C@@H](COc3ccc(NC(=O)CN)cc3)O[C@@H]2C(F)(F)F)cc1C(F)(F)F` [Example 50, 2-amino-N-(4-(((2R,5S)-3-(4-cyano-3-(trifluoromethyl)phenyl)-2-(trifluoromethyl)oxazolidin-5-yl)methoxy)phenyl)acetamide 2,2,2-trifluoroacetate] registered an EC50 of 15.6 nM. In turn, `N#Cc1ccc(N2C[C@@H](COc3ccc(NC(=O)[C@@H]4CCCN4)cc3)O[C@@H]2C(F)(F)F)cc1C(F)(F)F` [Example 51, (S)-N-(4-(((2R,5S)-3-(4-cyano-3-(trifluoromethyl)phenyl)-2-(trifluoromethyl)oxazolidin-5-yl)methoxy)phenyl)pyrrolidine-2-carboxamide 2,2,2-trifluoroacetate] returned a 50% effective concentration (EC50) of 165 nM.

`N#Cc1ccc(N2C[C@@H](COc3ccc(CC(=O)O)cc3)O[C@@H]2C(F)(F)F)cc1C(F)(F)F` [Example 52, 2-(4-(((2R,5S)-3-(4-cyano-3-(trifluoromethyl)phenyl)-2-(trifluoromethyl)oxazolidin-5-yl)methoxy)phenyl)acetic acid]: a half-maximal effect (EC50) was put at 759 nM. For the molecule `N#Cc1ccc(N2C[C@@H](COc3ccccc3)O[C@@H]2C(F)(F)F)cc1C(F)(F)F` [Example 58, 4-((2R,5S)-5-(phenoxymethyl)-2-(trifluoromethyl)oxazolidin-3-yl)-2-(trifluoromethyl)benzonitrile], the response was half-maximal at 107 nM (EC50). Consider `N#Cc1ccc(N2C[C@@H](COc3ccncc3)O[C@@H]2C(F)(F)F)cc1C(F)(F)F` [Example 59, 4-((2R,5S)-5-((pyridin-4-yloxy)methyl)-2-(trifluoromethyl)oxazolidin-3-yl)-2-(trifluoromethyl)benzonitrile], for which the EC50 came to 3.25 nM. On the same count and under the same terms, the same measure for `N#Cc1ccc(N2C[C@@H](COc3cccnc3)O[C@@H]2C(F)(F)F)cc1C(F)(F)F` [Example 60, 4-((2R,5S)-5-((pyridin-3-yloxy)methyl)-2-(trifluoromethyl)oxazolidin-3-yl)-2-(trifluoromethyl)benzonitrile]: 10.4 nM.
